Laboratory results published in patent US20070105864A1, “Methods for inhibiting protein kinases” (Schering Corporation, priority 2005, published 2007).

Assays:
recombinant His-CHK1 = biological target: T1, recombinant His-CHK1 (Homo sapiens, UniProt O14757); test: CHK1 SPA Assay; assay type: biochemical; settings: read-out: CHK-1 IC50
T1 construct: His-CHK1, In House Lot P976, MW ˜30 KDa, stored at −80 °C; fused on or other part: His tag
T1 sequence (O14757 1-265 limits assumed): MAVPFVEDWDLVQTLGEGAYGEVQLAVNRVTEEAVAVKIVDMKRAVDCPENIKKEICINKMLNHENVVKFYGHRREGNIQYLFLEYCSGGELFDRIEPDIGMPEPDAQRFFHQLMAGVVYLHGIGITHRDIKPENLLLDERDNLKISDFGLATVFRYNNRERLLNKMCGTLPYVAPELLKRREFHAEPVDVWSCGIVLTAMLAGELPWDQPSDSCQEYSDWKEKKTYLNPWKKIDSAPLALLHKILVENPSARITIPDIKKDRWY
Procedure: An in vitro assay was developed that utilizes recombinant His-CHK1 expressed in the baculovirus expression system as an enzyme source and a biotinylated peptide based on CDC25C as substrate (biotin-[…]).
1) CDC25C Ser 216 C-term Biotinylated peptide substrate (25 mg), stored at −20 °C, Custom Synthesis by Research Genetics: biotin-[…] 2595.4 MW
2) His-CHK1 In House lot P976, 235 ug/mL, stored at −80 °C.
1) Kinase Buffer: 50 mM Tris pH 8.0; 10 mM MgCl2; 1 mM DTT
2) His-CHK1, In House Lot P976, MW ˜30 KDa, stored at −80 °C. […] For 1 plate (100 r×n): dilute 8 μL of 235 μg/mL (7.83 uM) stock in 2 mL Kinase Buffer. This makes a 31 nM mixture. Add 20 μL/well. This makes a final reaction concentration of 6 nM.
3) CDC25C Biotinylated peptide.
Dilute CDC25C to 1 mg/mL (385 uM) stock and store at −20° C. For 1 plate (100 r×n): dilute 10 1L of 1 mg/mL peptide stock in 2 ml Kinase Buffer. This gives a 1.925 μM mix. Add 20 1L/r×n. This makes a final reaction concentration of 385 nM.
For 1 plate (100 r×n): dilute 10 μL of 1 mM ATP (cold) stock and 2 uL fresh P33-ATP (20 μCi) in 5 ml Kinase Buffer. This gives a 2 μM ATP (cold) solution; add 50 μl/well to start the reaction. Final volume is 100 μl/r×n so the final reaction concentrations will be 1 μM ATP (cold) and 0.2 uCi/r×n.
For 1 plate add: To 10 mL Wash Buffer 2 (2M NaCl 1% H3PO4): 1 mL SPA bead slurry (50 mg); Add 100 μL/well
6) Wash buffer 1: 2 M NaCl
7) Wash buffer 2: 2 M NaCl, 1% H3PO4
Dispense 10 μl/r×n to appropriate wells. Add 10 μL 10% DMSO to positive (CHK1+CDC25C+ATP) and negative (CHK1+ATP only) control wells. 2) Thaw enzyme on ice—dilute enzyme to proper concentration in kinase buffer (see Reaction Mixtures) and dispense 20 μl to each well. 3) Thaw the Biotinylated substrate on ice and dilute in kinase buffer (see Reaction Mixtures). Add 20 μL/well except to negative control wells. Instead, add 20 uL Kinase Buffer to these wells. 4) Dilute ATP (cold) and P33-ATP in kinase buffer (see Reaction Mixtures). Add 50 μL/well to start the reaction. 5) Allow the reaction to run for 2 hours at room temperature. 6) Stop reaction by adding 100 uL of the SPA beads/stop solution (see Reaction Mixtures) and leave to incubate for 15 minutes before harvest 7) Place a blank Packard GF/B filter plate into the vacuum filter device (Packard plate harvester) and aspirate […] water through to wet the system. 8) Take out the blank and put in the Packard GF/B filter plate. 9) Aspirate the reaction through the filter plate. 10) Wash: 200 ml each wash; 1× with 2M NaCl; 1× with 2M NaCl/1% H3PO4 11) Allow filter plate to dry 15 min. 12) Put TopSeal-A adhesive on top of filter plate. 13) Run filter plate in Top Count
Settings: • Data mode: CPM • Radio nuclide: Manual SPA:P33 • Scintillator: Liq/plast • Energy Range: Low
(§1) IC50 DETERMINATIONS: Dose-response curves were plotted from inhibition data generated, each in duplicate, from 8 point serial dilutions of inhibitory compounds. Concentration of compound was plotted against % kinase activity, calculated by CPM of treated samples divided by CPM of untreated samples. To generate IC50 values, the dose-response curves were then fitted to a standard sigmoidal curve and IC50 values were derived by nonlinear regression analysis.

Cyclin E/CDK2 = biological target: T2, Cyclin E/CDK2 (Homo sapiens, UniProt P24941); test: CDK2 Assay (Cyclin E/CDK2 in vitro kinase assay); assay type: biochemical; settings: read-out: CDK2 IC50
T2 construct: made in house; host or cells: SF9 cells (baculovirus co-infection)
Source text: BACULOVIRUS CONSTRUCTIONS: Cyclin E was cloned into pVL1393 (Pharmingen, La Jolla, Calif.) by PCR, with the addition of 5 histidine residues at the amino-terminal end to allow purification on nickel resin. The expressed protein was approximately 45 kDa. CDK2 was cloned into pVL1393 by PCR, with the addition of a haemaglutinin epitope tag at the carboxy-terminal end (YDVPDYAS). The expressed protein was approximately 34 kDa in size.
ENZYME PRODUCTION: Recombinant baculoviruses expressing cyclin E and CDK2 were co-infected into SF9 cells at an equal multiplicity of infection (MOI=5), for 48 hrs. Cells were harvested by centrifugation at 1000 RPM for 10 minutes, then pellets lysed on ice for 30 minutes in five times the pellet volume of lysis buffer containing 50 mM Tris pH 8.0, 1 50 mM NaCl, 1% NP40, 1 mM DTT and protease inhibitors (Roche Diagnostics GmbH, Mannheim, Germany). Lysates were spun down at 15000 RPM for 10 minutes and the supernatant retained. 5 ml of nickel beads (for one liter of SF9 cells) were washed three times in lysis buffer (Qiagen GmbH, Germany). Imidazole was added to the baculovirus supernatant to a final concentration of 20 mM, then incubated with the nickel beads for 45 minutes at 4° C. Proteins were eluted with lysis buffer containing 250 mM imidazole. Eluate was dialyzed overnight in 2 liters of kinase buffer containing 50 mM Tris pH 8.0, 1 mM DTT, 10 mM MgCl2, 100 uM sodium orthovanadate and 20% glycerol. Enzyme was stored in aliquots at −70° C.
IN VITRO KINASE ASSAY: Cyclin E/CDK2 kinase assays were performed in low protein binding 96-well plates (Corning Inc, Corning, N.Y.). Enzyme was diluted to a final concentration of 50 μg/ml in kinase buffer containing 50 mM Tris pH 8.0, 10 mM MgCl2, 1 mM DTT, and 0.1 mM sodium orthovanadate. The substrate used in these reactions was a biotinylated peptide derived from Histone H1 (from Amersham, UK). The substrate was thawed on ice and diluted to 2 μM in kinase buffer. Compounds were diluted in 10% DMSO to desirable concentrations. For each kinase reaction, 20 μl of the 50 µg/ml enzyme solution (1 μg of enzyme) and 20 μl of the 2 μM substrate solution were mixed, then combined with 10 μl of diluted compound in each well for testing. The kinase reaction was started by addition of 50 μl of 2 μM ATP and 0.1 μCi of 33P-ATP (from Amersham, UK). The reaction was allowed to run for 1 hour at room temperature. The reaction was stopped by adding 200 μl of stop buffer containing 0.1% Triton X-100, 1 mM ATP, 5 mM EDTA, and 5 mg/ml streptavidine coated SPA beads (from Amersham, UK) for 15 minutes. The SPA beads were then captured onto a 96-well GF/B filter plate (Packard/Perkin Elmer Life Sciences) using a Filtermate universal harvester (Packard/Perkin Elmer Life Sciences.). Non-specific signals were eliminated by washing the beads twice with 2M NaCl then twice with 2 M NaCl with 1% phosphoric acid. The radioactive signal was then measured using a TopCount 96 well liquid scintillation counter (from Packard/Perkin Elmer Life Sciences).
as §1

| Compound | IC50 (recombinant His-CHK1) | IC50 (Cyclin E/CDK2) |
| --- | --- | --- |
| Cn1cc(-c2cnc3c(Nc4sncc4C(C)(C)C)nc(CCN)cn23)cn1 | 0.011 µM | 14.1 µM |
| Cc1cc(Nc2nc(CCN)cn3c(-c4cnn(C)c4)cnc23)sc1C(N)=O | 0.019 µM | 17.9 µM |
| CCNC(=O)c1sc(Nc2nc(CCN)cn3c(-c4cnn(C)c4)cnc23)cc1C | 0.015 µM | 41.3 µM |
| Cc1cc(Nc2nc(C3=CCCNC3)cn3c(-c4cnn(C)c4)cnc23)sc1C(=O)NC1CCN(S(C)(=O)=O)CC1 | 0.024 µM | 41 µM |
| CCNC(=O)c1sc(Nc2nc(C3=CCCNC3)cn3c(-c4cnn(C)c4)cnc23)cc1C | 0.015 µM | – |
| Cn1cc(-c2cnc3c(Nc4ccns4)nc(CN)cn23)cn1 | 0.017 µM | 0.55 µM |
| CCN(CC)S(=O)(=O)c1sc(Nc2nc(C3=CCCNC3)cn3c(-c4cnn(C)c4)cnc23)cc1C | 0.019 µM | 18.3 µM |
| Cc1cc(Nc2nc(C3=CCCNC3)cn3c(-c4cnn(C)c4)cnc23)sc1S(=O)(=O)N1CCOCC1 | 0.007 µM | 5.95 µM |
| Cc1cc(Nc2nc(C3=CCCNC3)cn3c(-c4cnn(C)c4)cnc23)sc1S(=O)(=O)N1CCCC1 | 0.006 µM | 5.17 µM |
| Cc1cc(Nc2nc(C3=CCCNC3)cn3c(-c4cnn(C)c4)cnc23)sc1S(=O)(=O)NCC1CC1 | 0.008 µM | 2.14 µM |
| Cc1cc(Nc2nc(C3=CCCNC3)cn3c(-c4cnn(C)c4)cnc23)sc1S(=O)(=O)C(C)C | 0.005 µM | 4.79 µM |
| Cc1cc(Nc2nc(C3=CCCNC3)cn3c(-c4cnn(C)c4)cnc23)sc1S(C)(=O)=O | 0.008 µM | 11.6 µM |
| CCNS(=O)(=O)c1sc(Nc2nc(C3=CCCNC3)cn3c(-c4cnn(C)c4)cnc23)cc1C | 0.01 µM | – |
| Cc1cc(Nc2nc(C3=CCCNC3)cn3c(-c4cnn(C)c4)cnc23)sc1S(=O)(=O)NCCO | 0.006 µM | 4.68 µM |
| Cc1cc(Nc2nc(C3=CCCNC3)cn3c(-c4cnn(C)c4)cnc23)sc1-c1cnn(C)c1 | 0.019 µM | 4.59 µM |
| Cc1cc(Nc2nc(CCN)cn3c(-c4cnn(C)c4)cnc23)sc1S(=O)(=O)N(C)C | 0.014 µM | – |
| Cc1cc(Nc2nc(CCNCC3CC3)cn3c(-c4cnn(C)c4)cnc23)sc1S(=O)(=O)N(C)C | 0.01 µM | – |
| Cc1cc(Nc2nc(C3CCCNC3)cn3c(-c4cnn(C)c4)cnc23)sc1S(=O)(=O)N(C)C (stereo not drawn) | 0.012 µM | – |
| Cc1cc(Nc2nc(SC3CCNC3)cn3c(-c4cnn(C)c4)cnc23)sn1 (stereo not drawn) | 0.019 µM | – |
| Cc1cc(Nc2nc(C3=CCCNC3)cn3c(-c4cnn(C)c4)cnc23)sc1S(=O)(=O)N1CCC1 | 0.012 µM | – |
